From ChEMBL document CHEMBL5104197, “Structure-Based Optimization of Coumestan Derivatives as Polyketide Synthase 13-Thioesterase(Pks13-TE) Inhibitors with Improved hERG Profiles for Mycobacterium tuberculosis Treatment” (J Med Chem, 2022)
Converted amounts (≈) assume the structure as drawn.

Experiments:
[1] = tested on: Polyketide synthase Pks13 (Mycobacterium tuberculosis (strain ATCC 25618 / H37Rv)), I6X8D2 [N1640S]; experiment: Binding affinity to Mycobacterium tuberculosis Pks13-TE N1640S mutant expressed in Escherichia coli BL21(DE3) pLysS assessed as change in melting temperature at 1:10 compound to protein ratio by nanoDSF thermal stability analysis
[2] = tested on: Polyketide synthase Pks13 (Mycobacterium tuberculosis (strain ATCC 25618 / H37Rv)), I6X8D2 [N1640S]; experiment: Binding affinity to Mycobacterium tuberculosis Pks13-TE N1640S mutant expressed in Escherichia coli BL21(DE3) pLysS assessed as change in melting temperature at 1:5 compound to protein ratio by nanoDSF thermal stability analysis
[3] = tested on: Polyketide synthase Pks13 (Mycobacterium tuberculosis (strain ATCC 25618 / H37Rv)), I6X8D2 [N1640K]; experiment: Binding affinity to Mycobacterium tuberculosis Pks13-TE N1640K mutant expressed in Escherichia coli BL21(DE3) pLysS assessed as change in melting temperature at 1:10 compound to protein ratio by nanoDSF thermal stability analysis
[4] = tested on: Polyketide synthase Pks13 (Mycobacterium tuberculosis (strain ATCC 25618 / H37Rv)), I6X8D2 [N1640K]; experiment: Binding affinity to Mycobacterium tuberculosis Pks13-TE N1640K mutant expressed in Escherichia coli BL21(DE3) pLysS assessed as change in melting temperature at 1:5 compound to protein ratio by nanoDSF thermal stability analysis
[5] = tested on: Mycobacterium tuberculosis; type: functional, Vero; details: TF274, 168 h, time 7 day
[6] = tested on: Mycobacterium tuberculosis; type: functional, Vero; details: V2475, 168 h, time 7 day
[7] = tested on: Mycobacterium tuberculosis; type: functional, Vero; details: R506, 168 h, time 7 day
[8] = tested on: Mycobacterium tuberculosis; type: functional, Vero; details: KZN494, 168 h, time 7 day

| SMILES | ΔTm [1] [°C] | ΔTm [2] [°C] | ΔTm [3] [°C] | ΔTm [4] [°C] | MIC90 [5] [µg/mL] | MIC90 [6] [µg/mL] | MIC90 [7] [µg/mL] | MIC90 [8] [µg/mL] |
| --- | --- | --- | --- | --- | --- | --- | --- | --- |
| O=c1oc2cc(O)ccc2c2oc3ccc(O)c(CN4CC[C@H](F)C4)c3c12 | 7.9 | 6.9 | – | – | – | – | – | – |
| O=c1oc2cc(O)ccc2c2oc3ccc4c(c3c12)CN(CC1CC1)CO4 | 9.3 | 8.6 | 0.1 | 0.2 | – | – | – | – |
| O=c1oc2cc(O)ccc2c2oc3ccc4c(c3c12)CN(C1CCCC1)CO4 | 10.9 | 10.1 | 0.1 | 0.3 | 0.0039 (≈ 0.0103 µM) | 0.0039 (≈ 0.0103 µM) | 0.0039 (≈ 0.0103 µM) | 0.0039 (≈ 0.0103 µM) |
| O=c1oc2cc(O)ccc2c2oc3ccc(O)c(CN4CCC(F)CC4)c3c12 | 9.6 | 8.7 | 1 | 1.5 | 0.0625 (≈ 0.163 µM) | 0.125 (≈ 0.326 µM) | 0.0625 (≈ 0.163 µM) | 0.0625 (≈ 0.163 µM) |
| COc1ccc2c(c1)oc(=O)c1c2oc2ccc(O)c(CN3CCC(F)(F)CC3)c21 | 1.7 | 1.9 | – | – | – | – | – | – |
| O=c1oc2cc(O)ccc2c2oc3ccc(O)c(CN4CCCCC4)c3c12 | 10.5 | 11.4 | 0.9 | 0.8 | – | – | – | – |
